Patent US12466816B2, “Fused cyclic compound capable of degrading protein and use thereof” (Medshine Discovery Inc., priority 2019, dated 2025)

What was measured:
[1] = tested on: colorectal cancer cells and brain tumor cell lines; assay: Clone formation experiment; format: cell-based; conditions: 10 μM; some colorectal cancer cells and brain tumor cell lines
Protocol: The effect of the compound on the monoclone-formation capacity of cells was examined. Cells were seeded in 6-well plates at low density (about 500 cells per well), 10 μM of WX106 was added for treatment, crystal violet staining (Beyotime Biotechnology, C0121) was performed when the cells grew into clones visible to the naked eye, and the number of clones was counted. All treatments were performed in at least three replicates.

[2] = tested on: tumor cell lines; assay: Cell experiment: CCK-8 growth inhibition of tumor cell lines; format: cell-based; conditions: 72 hours, hematological tumor cells and some liver cancer cells, read-out: growth inhibitory effect (inhibition rate)
Protocol: Different cells were seeded in 96-well plates (the density of adherent cells was 1,000/well and the density of suspension cells was 10,000/well), 10 μM of WX106 was added for 72 hours of action, and CCK-8 reagent (Meilun Biotechnology, MA0218-L) was added for 2 hours of reaction thereafter; and the plate was then read with a microplate reader (SpectraMax i3) and the inhibition rate was calculated. Inhibition rate=[(Ac−As)/(Ac−Ab)]×100% (where As represents the absorbance of experimental wells, Ac represents the absorbance of control wells, and Ab represents the absorbance of blank wells).
Eighteen tumor cell lines were treated with 10 μM of WX106 for 72 hours, and the rate of inhibition of cell growth by WX106 was calculated.

[3] = tested on: Hep3B and SNU182 cells; assay: Growth curves of stable CRBN knockout cell lines (pool); format: cell-based; conditions: 10 μM
Protocol: (§1) The sgRNA sequence targeting CRBN was inserted into lenti Crispr V2 plasmid, the virus was co-packaged with the packaging vectors psPAX2 and pVSVG, and the cells were infected; screening was performed with puromycin (Invitrogen, A1113803) and the knockout of CRBN was identified by Western blot; finally, the cell growth was detected to calculate the survival rate.
Stable CRBN knockout cell lines (pool) were established in Hep3B and SNU182 cells, respectively, and treated with WX106 (10 μM) or solvent; the growth of cells was detected at different time points and the growth curves were drawn.

[4] = biological target: T1, Wee1 (Homo sapiens, UniProt P30291); assay: Detection of protein degradation by the drug (Western blot); format: cell-based; design: endogenous in cells; host or cells: MOLT-4, U87-MG; conditions: 6 hours
T1 sequence (P30291 whole entry): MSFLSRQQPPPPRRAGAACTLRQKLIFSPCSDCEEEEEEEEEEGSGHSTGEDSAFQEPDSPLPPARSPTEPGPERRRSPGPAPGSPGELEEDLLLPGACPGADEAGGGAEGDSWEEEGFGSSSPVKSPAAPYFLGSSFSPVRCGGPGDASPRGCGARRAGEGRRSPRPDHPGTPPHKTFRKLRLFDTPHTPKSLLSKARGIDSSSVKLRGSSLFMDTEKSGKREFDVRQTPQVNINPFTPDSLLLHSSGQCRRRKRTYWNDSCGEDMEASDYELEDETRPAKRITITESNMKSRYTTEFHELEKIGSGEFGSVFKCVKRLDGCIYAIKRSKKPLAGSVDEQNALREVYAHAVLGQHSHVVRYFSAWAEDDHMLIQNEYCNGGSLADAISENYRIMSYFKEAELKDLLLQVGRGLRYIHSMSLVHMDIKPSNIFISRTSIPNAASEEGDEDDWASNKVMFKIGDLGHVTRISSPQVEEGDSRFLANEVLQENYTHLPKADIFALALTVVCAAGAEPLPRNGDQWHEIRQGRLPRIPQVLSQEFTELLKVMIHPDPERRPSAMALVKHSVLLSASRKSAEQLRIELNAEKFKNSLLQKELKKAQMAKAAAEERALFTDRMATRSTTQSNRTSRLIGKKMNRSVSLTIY
Protocol: Cells were seeded in 6-well plates at a density of about 70%, and the compound WX106 of different concentrations (concentrations shown in the accompanying drawings) were added for 6 hours of treatment, and then the whole-cell lysates were collected for target protein detection. The antibody used was: (Wee1 (D10D2) Rabbit mAb, Cell Signaling, 13084S). To investigate whether drug-induced protein degradation occurs via the ubiquitin pathway, MG132 was used to block ubiquitin-mediated protein degradation. This method was also applied to 293T, MOLT-4, U87-MG, HCT116, and LN-229.
FIG. 13 and FIG. 14 show the effect of WX106 on Wee1 protein expression in MOLT-4 cells.

[5] = biological target: CRBN (Homo sapiens, UniProt Q96SW2); assay: Thermal displacement experiment (CRBN thermal stability, Western blot); format: binding; design: endogenous in cells; conditions: 100 μM, 293T cell lysates, 56° C. and 59° C.
Sequence of CRBN (Q96SW2 whole entry): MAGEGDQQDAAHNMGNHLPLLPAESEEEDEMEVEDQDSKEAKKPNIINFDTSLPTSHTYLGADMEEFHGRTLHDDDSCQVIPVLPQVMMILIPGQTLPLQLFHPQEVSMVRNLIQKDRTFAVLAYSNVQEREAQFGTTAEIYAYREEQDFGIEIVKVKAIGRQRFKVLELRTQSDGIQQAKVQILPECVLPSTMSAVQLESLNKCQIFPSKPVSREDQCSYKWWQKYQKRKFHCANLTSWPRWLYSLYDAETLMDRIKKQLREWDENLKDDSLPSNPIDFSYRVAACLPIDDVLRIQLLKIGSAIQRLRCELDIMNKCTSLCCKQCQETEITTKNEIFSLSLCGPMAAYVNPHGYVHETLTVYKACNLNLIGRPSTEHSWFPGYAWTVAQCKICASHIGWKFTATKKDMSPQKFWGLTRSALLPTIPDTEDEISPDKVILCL
Protocol: The experiment utilizes the principle that the binding of small molecular compounds to proteins can improve the thermal stability of proteins. 3×10^7 cells were collected and washed twice with phosphate buffered saline (PBS). 100×protease inhibitor cocktail (APEXBIO, K1007) was added to pre-cooled PBS to suspend the cells, and 500 μL of cell suspension was aliquoted into each 1.5 EP tube. The EP tube was placed in liquid nitrogen for quick freezing for 5 min and then transferred to a 26° C. water bath quickly; thereafter, the EP tube was transferred to a 4° C. environment when the liquid is half thawed, until it is completely thawed. This freeze-thaw procedure was performed thrice to allow complete protein precipitation from the cells. The frozen-thawed product was centrifuged at 4° C. for 20 min, the supernatant was aspirated and mixed, and then aliquoted into 1.5 mL EP tubes, and DMSO and WX106 were added respectively to adjust the concentration of WX106 in the solution to 100 μM. […] After the heat shock at all temperatures, the DMSO- and WX106-treated samples at each temperature were collected respectively, centrifuged at 4° C. for 20 min, and the concentration of BCA protein (Thermo) was quantified; at the same time, Western blot was performed to detect the changes of CRBN (Anti-CRBN antibody, Sigma Company, HPA045910) protein content. […]

[6] = biological target: T1, Wee1; assay: CRBN-dependent ubiquitin-mediated degradation of Wee1 (wild-type versus CRBN KO cells, Western blot); format: cell-based; design: endogenous in cells; host or cells: U87-MG
Protocol: 293T cells and 293T CRBN KO cells were treated with DMSO, 1 μM WX106, 10 μM WX106 alone or in combination with 10 μM MG132 for 16 h, the whole-cell lysates were collected, and Wee1 protein expression was detected using Western blot. […] U87-MG cells and U87-MG CRBN KO cells were treated with 10 μM WX106 or WX106 plus 10 μM MG132 for 16 h, and the level of Wee1 protein expression was detected using Western blot.

[7] = tested on: Hep3B cells; assay: Sensitivity of wild-type versus CRBN KO cells to WX106 (CCK-8); format: cell-based; conditions: 10 μM, 72 h
Protocol: as §1
WX106 (10 μM) was added to wild-type Hep3B cells and Hep3B CRBN KO (knockout) hybrid clone cells, respectively, and cell proliferation was detected by CCK-8 after 72 h.

SMILES: Cc1ccc(C(=O)Nc2ccc3occ(C4CCC(=O)NC4=O)c3c2)cc1Cl (centres unmarked) [WX106]
- clone formation [1]: inhibits clone formation
- inhibition at 10 µM [2]: > 50%
- sensitivity of cells with normal CRBN expression (growth curve) ([3]; Hep3B and SNU182): very sensitive
- growth rate of low-CRBN-expression cells compared with the solvent group ([3]; Hep3B and SNU182 CRBN knockout pools): no significant difference
- pro-degradation effect on Wee1 ([4]; HCT116 cells): weak pro-degradation effect
- pro-degradation effect on Wee1 ([4]; U87-MG cells): significant pro-degradation effect
- CRBN protein abundance after heat shock [5]: significantly increased
- level of Wee1 expression in CRBN-deficient cells ([6]; 293T CRBN KO cells, 1 μM or 10 μM, 16 h): no significant change
- Wee1 degradation in wild-type cells ([6]; 293T cells, 1 μM or 10 μM, 16 h): promoted Wee1 degradation
- pro-degradation effect on Wee1 when MG132 was added ([6]; wild-type 293T cells, with 10 μM MG132, 16 h): absent
- sensitivity of cells to WX106 after CRBN knockout [7]: significantly reduced
